Laboratory results taken from patent US20260345488A1, “PHARMACEUTICAL FORMULATIONS” (Gelteq Limited, priority 2023, published 2026).

Assay: Compatibility of pH adjustors with the formulation
Assay type: physicochemical
Details: in ibuprofen gel formulation
Experimental: Hydrochloric acid and citric acid were tested as pH adjustors. […] As a consequence, it was selected as the preferred pH adjusting agent. Further details of the ibuprofen gels of the invention are set out in Example 1.

Row | Structure (SMILES) | compatibility / effect as pH adjustor
1 | O=C(O)CC(O)(CC(=O)O)C(=O)O [Citric acid] | changed the pH significantly
2 | Cl [Hydrochloric acid] | precipitated and was not compatible with the formulation

Assay: not given
Details: classification on solubility and permeability; cited from earlier work

Row | Structure (SMILES) | BCS class
3 | c1ccc(-c2ccc(C(c3ccccc3)n3ccnc3)cc2)cc1 (centres unmarked) [Bifonazole] | Class IV
4 | NS(=O)(=O)c1cc2c(cc1Cl)NCNS2(=O)=O [Hydrochlorothiazide] | class II
5 | COCCc1ccc(OCC(O)CNC(C)C)cc1 (centres unmarked) [Metoprolol] | Class I
6 | O=C(O)Cc1ccccc1Nc1c(Cl)cccc1Cl [Diclofenac] | class II
7 | COc1ccc2cc([C@H](C)C(=O)O)ccc2c1 [Naproxen] | Class II
8 | CN/C(=N/CCSCc1nc[nH]c1C)NC#N [Cimetidine] | Class III
